The record followed here is ChEMBL document CHEMBL1158376, “Azadirachtin, a scientific gold mine” (Bioorg Med Chem, 2009).

In data set [1] the test system is Drosophila melanogaster. The data set is described as follows: Induction of nuclear damage in Drosophila melanogaster Kc167 cells after 6 hrs. The data set is classed as functional.
The nature of data set [2]: Toxicity in rat. The data set is classed as organism-based. The settings on record: in vivo.
Data set [3] deals with Drosophila melanogaster. The data set is described as follows: Antiproliferative activity against Drosophila melanogaster Kc167 cells after 48 hrs. The data set is classed as functional.

As usually defined, the LD50 is the dose expected to kill half of the subjects tested. A lower LD50 goes with greater toxicity.

Take `C/C=C(\C)C(=O)O[C@H]1C[C@@H](OC(C)=O)[C@@]2(C(=O)OC)CO[C@H]3[C@@H](O)[C@@](C)([C@]45O[C@@]4(C)[C@@H]4C[C@H]5O[C@@H]5OC=C[C@@]54O)[C@H]4[C@]1(CO[C@]4(O)C(=O)OC)[C@@H]32` [AZADIRACHTIN A]: the inhibition entry in data set [1] and in data set [3] was “Dose-dependent effect” each time. Also, the LD50 in data set [2] was > 3540 mg/kg.
